Patent publication US20120309739A1, “AKT / PKB INHIBITORS” (ALMAC DISCOVERY LIMITED, priority 2009, published 2012)
pIC50: −log10 of the molar value. Structures can show the parent of a compound that is named as a salt.

Columns and labels:
Assay type in all cases: biochemical
AKT2 = target: T1, AKT2 (Homo sapiens, UniProt P31751); assay: AKT Kinase Assay (IMAP fluorescent polarisation) vs AKT2; settings: activated AKT2, FAM Crosstide substrate
T1 construct: purchased SignalChem
Experimental: (§1) Testing of the compounds was performed using an AKT Kinase Assay:
(§2) Activated AKT isoforms 1, 2 and 3 were assayed utilising a 5′ FAM Crosstide (Seq. GRPRTSSFAEG-OH). The extent of kinase phosphorylation was determined by fluorescent polarisation using IMAP progressive binding reagent, which introduces binding beads which allow the reagent to specifically bind to phosphate residues via covalent co-ordination complex bonds.
(§3) iMAP binding solution stops Crosstide/kinase interaction and specifically binds phosphorylated substrates. The degree of phosphorylation is determined by fluorescent polarisation (excitation 485 nm; emission 528 nm) or the reduction in speed of rotation of the excited substrate.
(§4) The following materials were used in the assay: • a) Activated AKT isoforms (SignalChem.) dissolved in Complete Reaction buffer at a pre-determined concentration selected so that the assay was carried out in the linear range. • b) AKT substrate peptide: FAM Crosstide (R7110) Molecular Devices, diluted in complete reaction buffer. • c) iMAP Progressive Screening Express Kit (R8127) Molecular Devices • d) Complete Reaction Buffer containing 0.1% BSA, 10 mM Tris-HCl, 10 mM MgCl2, 0.05% NaN3 and 0.01% phosphate free BSA, 1 mM DTT • e) Progressive Binding Solution containing 75% Buffer A, 25% Buffer B and low volume Binding Reagent which contains the binding entity for the assay • f) ATP diluted in complete reaction buffer • g) Black polystyrene 384 well assay plates (Nunc). • h) Biotek Synergy 4 Hybrid Plate reader.
(§5) 50 μl of test compound was dissolved in DMSO (Sigma Aldrich) and serially diluted in complete reaction buffer to give a fourteen point half log dose response and plated into 384 well black plates. The compound was incubated at room temperature with activated AKT isoform ([…]) at the pre-determined concentration, for 45 minutes.
(§6) […] of ATP solution mixed with 2.5 μl of AKT substrate peptide (FAM Crosstide (R7110) Molecular Devices) were dispensed into each well and the plate centrifuged at 1000 rpm for 20 seconds to ensure homogenous mixing of reagents. The reaction mix was incubated in the dark for one hour at room temperature.
(§7) The kinase reaction was stopped by the addition of Progressive Binding Solution and the mixture allowed to equilibrate for one hour in the dark, at room temperature.
(§8) The fluorescent polarisation generated in each well was determined using a […] Synergy 4 Hybrid plate reader. In brief, each reaction solution was excited at 485 nm with the emission measured at 528 nm in both the parallel and perpendicular pathway.
(§9) The polarisation value generated in each well was calculated by Gen5 software (Biotek) and the % inhibition of kinase activity compared to vehicle control was calculated via GraphPad Prism. IC50 values for each compound were calculated by non-linear regression analysis using Prism software.
(§10) All plates were internally controlled by two methods. Firstly, by calculating the signal:noise ratio; based on kinase polarisation without inhibitor and polarisation generated by complete reaction buffer in the absence of activated kinase. Secondly by determining IC50 values generated by known inhibitors of the AKT isoforms.

AKT3 = target: T2, AKT3 (Homo sapiens, UniProt Q9Y243); assay: AKT Kinase Assay (IMAP fluorescent polarisation) vs AKT3; settings: activated AKT3, FAM Crosstide substrate
T2 construct: purchased SignalChem
T2 sequence (Q9Y243 whole entry): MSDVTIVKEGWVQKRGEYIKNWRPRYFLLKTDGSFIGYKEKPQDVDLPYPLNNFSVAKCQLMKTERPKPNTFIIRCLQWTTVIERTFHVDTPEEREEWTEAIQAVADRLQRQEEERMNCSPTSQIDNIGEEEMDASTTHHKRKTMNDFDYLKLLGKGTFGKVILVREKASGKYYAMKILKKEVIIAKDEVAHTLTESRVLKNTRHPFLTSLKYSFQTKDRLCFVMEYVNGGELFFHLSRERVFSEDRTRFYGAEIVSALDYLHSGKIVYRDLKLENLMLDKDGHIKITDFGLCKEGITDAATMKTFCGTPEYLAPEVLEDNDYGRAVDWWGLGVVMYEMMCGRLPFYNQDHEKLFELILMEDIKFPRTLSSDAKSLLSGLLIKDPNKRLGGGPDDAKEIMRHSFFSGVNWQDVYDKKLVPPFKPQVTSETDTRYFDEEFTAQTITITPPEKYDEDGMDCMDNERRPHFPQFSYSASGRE
Experimental: as §1, §2, §3, §4, §5, §6, §7, §8, §9, §10

AKT1 = target: T3, AKT1 (Homo sapiens, UniProt P31749); assay: AKT Kinase Assay (IMAP fluorescent polarisation) vs AKT1; settings: activated AKT1, FAM Crosstide substrate
T3 construct: purchased SignalChem
T3 sequence (P31749 whole entry): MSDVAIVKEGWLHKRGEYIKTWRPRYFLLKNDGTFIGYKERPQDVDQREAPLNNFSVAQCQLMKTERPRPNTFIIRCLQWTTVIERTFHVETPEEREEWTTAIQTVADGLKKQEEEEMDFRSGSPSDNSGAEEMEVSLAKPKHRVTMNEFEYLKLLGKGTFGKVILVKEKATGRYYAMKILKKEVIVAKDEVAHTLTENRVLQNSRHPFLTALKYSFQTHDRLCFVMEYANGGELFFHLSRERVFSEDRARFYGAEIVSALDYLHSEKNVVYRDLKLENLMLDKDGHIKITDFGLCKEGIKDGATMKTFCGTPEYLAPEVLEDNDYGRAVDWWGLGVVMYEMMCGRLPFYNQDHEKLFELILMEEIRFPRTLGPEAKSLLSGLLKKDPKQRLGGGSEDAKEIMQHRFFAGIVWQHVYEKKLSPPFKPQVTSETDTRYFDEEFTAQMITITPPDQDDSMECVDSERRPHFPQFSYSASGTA
Experimental: as §1, §2, §3, §4, §5, §6, §7, §8, §9, §10

T1 sequence (P31751 whole entry): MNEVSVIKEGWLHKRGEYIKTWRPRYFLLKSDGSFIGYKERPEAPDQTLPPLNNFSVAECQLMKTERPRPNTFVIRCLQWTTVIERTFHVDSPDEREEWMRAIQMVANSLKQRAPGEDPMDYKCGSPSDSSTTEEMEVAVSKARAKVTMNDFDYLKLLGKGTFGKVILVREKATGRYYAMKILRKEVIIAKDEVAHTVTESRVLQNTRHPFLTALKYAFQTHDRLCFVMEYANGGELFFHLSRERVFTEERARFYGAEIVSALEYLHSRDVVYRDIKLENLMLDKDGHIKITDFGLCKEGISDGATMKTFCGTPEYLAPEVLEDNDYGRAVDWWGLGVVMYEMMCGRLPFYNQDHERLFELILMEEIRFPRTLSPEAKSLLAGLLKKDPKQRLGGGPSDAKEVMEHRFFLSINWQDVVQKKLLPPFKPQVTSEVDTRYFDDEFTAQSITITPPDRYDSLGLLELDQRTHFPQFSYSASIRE

SMILES | pIC50 (AKT2) | pIC50 (AKT3) | pIC50 (AKT1)
COc1nc(NCCN(C)C)nc2oc(-c3ccc(C4(N)CCC4)cc3)c(-c3ccccc3)c12 [Example 14, N^1-(6-(4-(1-Aminocyclobutyl)phenyl)-4-methoxy-5-phenylfuro[2,3-d]pyrimidin-2-yl)-N^2,N^2-dimethylethane-1,2-diamine] | 6.00 to 7.00 | 5.00 to 6.00 | 6.00 to 7.00
NC1(c2ccc(-c3oc4ncc(C5CC5)nc4c3-c3ccccc3)cc2)CCC1 [Example 138, 1-(4-(2-Cyclopropyl-7-phenylfuro[2,3-b]pyrazin-6-yl)phenyl)cyclobutanamine] | 6.00 to 7.00 | 5.00 to 6.00 | 6.00 to 7.00
Cn1c(=O)c2c(-c3ccccc3)c(-c3ccc(C4(N)CCC4)cc3)oc2n(C)c1=O [Example 125, 6-(4-(1-Aminocyclobutyl)phenyl)-1,3-dimethyl-5-phenylfuro[2,3-d]pyrimidine-2,4(1H,3H)-dione] | 5.00 to 6.00 | < 5.00 | 6.00 to 7.00
Cn1ccc2c(-c3ccccc3)c(-c3ccc(C4(N)CCC4)cc3)oc2c1=O [Example 129, 2-(4-(1-Aminocyclobutyl)phenyl)-6-methyl-3-phenylfuro[2,3-c]pyridin-7(6H)-one] | 6.00 to 7.00 | 5.00 to 6.00 | 6.00 to 7.00
COc1nc(N2CCOCC2)nc2oc(-c3ccc(C4(N)CCC4)cc3)c(-c3ccccc3)c12 [Example 13, 1-(4-(4-Methoxy-2-morpholino-5-phenylfuro[2,3-d]pyrimidin-6-yl)phenyl)cyclobutanamine] | 6.00 to 7.00 | 5.00 to 6.00 | 5.00 to 6.00
Cc1n[nH]c(C)c1-c1cnc2oc(-c3ccc(C4(N)CCC4)cc3)c(-c3ccccc3)c2n1 [Example 143, 1-(4-(2-(3,5-Dimethyl-1H-pyrazol-4-yl)-7-phenylfuro[2,3-b]pyrazin-6-yl)phenyl)cyclobutanamine] | 5.00 to 6.00 | < 5.00 | 5.00 to 6.00
NC1(c2ccc(-c3oc4nc(OCCO)ncc4c3-c3ccccc3)cc2)CCC1 [Example 54, 2-((6-(4-(1-Aminocyclobutyl)phenyl)-5-phenylfuro[2,3-d]pyrimidin-2-yl)oxy)ethanol] | 6.00 to 7.00 | < 5.00 | ≥ 7.00
NC1(c2ccc(-c3oc4ncc(N5CCOCC5)cc4c3-c3ccccc3)cc2)CCC1 [Example 28, 1-(4-(5-Morpholino-3-phenylfuro[2,3-b]pyridin-2-yl)phenyl)cyclobutanamine] | 5.00 to 6.00 | < 5.00 | < 5.00
COc1nc(N2CCCCC2)nc2oc(-c3ccc(C4(N)CCC4)cc3)c(-c3ccccc3)c12 [Example 47, 1-(4-(4-Methoxy-5-phenyl-2-(piperidin-1-yl)furo[2,3-d]pyrimidin-6-yl)phenyl)cyclobutanamine] | 5.00 to 6.00 | < 5.00 | 5.00 to 6.00
Cn1cc(-c2cn(CCF)c(=O)c3c(-c4ccccc4)c(-c4ccc(C5(N)CCC5)cc4)oc23)cn1 [Example 113, 2-(4-(1-Aminocyclobutyl)phenyl)-5-(2-fluoroethyl)-7-(1-methyl-1H-pyrazol-4-yl)-3-phenylfuro[3,2-d]pyridin-4(5H)-one] | 6.00 to 7.00 | 5.00 to 6.00 | 6.00 to 7.00
Nc1cnc2oc(-c3ccc(C4(N)CCC4)cc3)c(-c3ccccc3)c2c1 [Example 22, 2-(4-(1-Aminocyclobutyl)phenyl)-3-phenylfuro[2,3-b]pyridin-5-amine] | 5.00 to 6.00 | < 5.00 | 5.00 to 6.00
CC(C)n1cnc2oc(-c3ccc(C4(N)CCC4)cc3)c(-c3ccccc3)c2c1=O [Example 107, 6-(4-(1-Aminocyclobutyl)phenyl)-3-isopropyl-5-phenylfuro[2,3-d]pyrimidin-4(3H)-one, HCl] | 6.00 to 7.00 | 5.00 to 6.00 | 5.00 to 6.00
CNc1ncc2c(-c3ccccc3)c(-c3ccc(C4(N)CCC4)cc3)oc2n1 [Example 55, 6-(4-(1-Aminocyclobutyl)phenyl)-N-methyl-5-phenylfuro[2,3-d]pyrimidin-2-amine] | 6.00 to 7.00 | < 5.00 | ≥ 7.00
NC1(c2ccc(-c3oc4ncn(CCO)c(=O)c4c3-c3ccccc3)cc2)CCC1 [Example 102, 6-(4-(1-Aminocyclobutyl)phenyl)-3-(2-hydroxyethyl)-5-phenylfuro[2,3-d]pyrimidin-4(3H)-one, HCl] | 6.00 to 7.00 | 5.00 to 6.00 | 5.00 to 6.00
CSc1nc(C(F)(F)F)c2c(-c3ccccc3)c(-c3ccc(C4(N)CCC4)cc3)oc2n1 [Example 74, 1-(4-(2-(Methylthio)-5-phenyl-4-(trifluoromethyl)furo[2,3-d]pyrimidin-6-yl)phenyl)cyclobutanamine hydrochloride] | 5.00 to 6.00 | < 5.00 | 5.00 to 6.00
CSc1cnc2c(-c3ccccc3)c(-c3ccc(C4(N)CCC4)cc3)[nH]c2n1 [Example 153, 1-(4-(3-(Methylthio)-7-phenyl-5H-pyrrolo[3,2-b]pyrazin-6-yl)phenyl)cyclobutanamine] | 6.00 to 7.00 | < 5.00 | 6.00 to 7.00
Cn1c(C2CC2)nc2oc(-c3ccc(C4(N)CCC4)cc3)c(-c3ccccc3)c2c1=O [Example 90, 6-(4-(1-Aminocyclobutyl)phenyl)-2-cyclopropyl-3-methyl-5-phenylfuro[2,3-d]pyrimidin-4(3H)-one] | 6.00 to 7.00 | < 5.00 | 6.00 to 7.00
NC1(c2ccc(-c3oc4nc(NCCO)nc(N5CCOCC5)c4c3-c3ccccc3)cc2)CCC1 [Example 71, 2-((6-(4-(1-Aminocyclobutyl)phenyl)-4-morpholino-5-phenylfuro[2,3-d]pyrimidin-2-yl)amino)ethanol] | 5.00 to 6.00 | < 5.00 | 5.00 to 6.00
CNc1nc2oc(-c3ccc(C4(N)CCC4)cc3)c(-c3ccccc3)c2c(=O)n1CC1CC1 [Example 94] | ≥ 7.00 | 5.00 to 6.00 | 5.00 to 6.00
NC1(c2ccc(-c3oc4nc(NCCO)nc(C(F)(F)F)c4c3-c3ccccc3)cc2)CCC1 [Example 73, 2-((6-(4-(1-Aminocyclobutyl)phenyl)-5-phenyl-4-(trifluoromethyl)furo[2,3-d]pyrimidin-2-yl)amino)ethanol] | 6.00 to 7.00 | < 5.00 | 6.00 to 7.00
COc1nc(NCCN2CCN(C)CC2)nc2oc(-c3ccc(C4(N)CCC4)cc3)c(-c3ccccc3)c12 [Example 34, 6-(4-(1-Aminocyclobutyl)phenyl)-4-methoxy-N-(2-(4-methylpiperazin-1-yl)ethyl)-5-phenylfuro[2,3-d]pyrimidin-2-amine] | 6.00 to 7.00 | 5.00 to 6.00 | ≥ 7.00
CNc1nc2oc(-c3ccc(C4(N)CCC4)cc3)c(-c3ccccc3)c2c(=O)n1CC(F)(F)F [Example 122, 6-(4-(1-Aminocyclobutyl)phenyl)-2-(methylamino)-5-phenyl-3-(2,2,2-trifluoroethyl)furo[2,3-d]pyrimidin-4(3H)-one] | ≥ 7.00 | 5.00 to 6.00 | 6.00 to 7.00
Cn1c(N2CCC(O)CC2)nc2oc(-c3ccc(C4(N)CCC4)cc3)c(-c3ccccc3)c2c1=O [Example 59, 6-(4-(1-Aminocyclobutyl)phenyl)-2-(4-hydroxypiperidin-1-yl)-3-methyl-5-phenylfuro[2,3-d]pyrimidin-4(3H)-one hydrochloride] | ≥ 7.00 | 5.00 to 6.00 | 6.00 to 7.00
CNc1nc(NCCO)nc2oc(-c3ccc(C4(N)CCC4)cc3)c(-c3ccccc3)c12 [Example 79, 2-(6-(4-(1-Aminocyclobutyl)phenyl)-4-(methylamino)-5-phenylfuro[2,3-d]pyrimidin-2-ylamino)ethanol, HCl] | 5.00 to 6.00 | < 5.00 | 6.00 to 7.00
NC1(c2ccc(-c3oc4ncncc4c3-c3ccccc3)cc2)CCC1 [Example 20, 1-(4-(5-Phenylfuro[2,3-d]pyrimidin-6-yl)phenyl)cyclobutanamine] | 5.00 to 6.00 | < 5.00 | 5.00 to 6.00
